Source: article PMC2680146 (Chemical biology & drug design, 2008)
“Also recorded” adds a separate entry of the source.

Key:
Photolysis = type: physicochemical; settings: 300-400 nm light (λmax 350 nm)
yPFTase [1] = test: yPFTase-catalyzed prenylation, product analysis by HPLC; type: biochemical, Saccharomyces cerevisiae; settings: FPP source pure FPP or photolysis product of 5 or 9
yPFTase [2] = test: yPFTase substrate studies, continuous fluorescence assay; type: biochemical, Saccharomyces cerevisiae
[3] = λirrad 350 nm; ref [16]; cited from earlier work
rPFTase = rPFTase (Rattus norvegicus, UniProt Q02293+Q04631); test: X-ray crystallography of rPFTase:FPP:15 complex; type: binding; settings: FPP bound in presence of 15 vs PDB 1KZO
Chain of rPFTase (Q02293 whole entry, one chain of several): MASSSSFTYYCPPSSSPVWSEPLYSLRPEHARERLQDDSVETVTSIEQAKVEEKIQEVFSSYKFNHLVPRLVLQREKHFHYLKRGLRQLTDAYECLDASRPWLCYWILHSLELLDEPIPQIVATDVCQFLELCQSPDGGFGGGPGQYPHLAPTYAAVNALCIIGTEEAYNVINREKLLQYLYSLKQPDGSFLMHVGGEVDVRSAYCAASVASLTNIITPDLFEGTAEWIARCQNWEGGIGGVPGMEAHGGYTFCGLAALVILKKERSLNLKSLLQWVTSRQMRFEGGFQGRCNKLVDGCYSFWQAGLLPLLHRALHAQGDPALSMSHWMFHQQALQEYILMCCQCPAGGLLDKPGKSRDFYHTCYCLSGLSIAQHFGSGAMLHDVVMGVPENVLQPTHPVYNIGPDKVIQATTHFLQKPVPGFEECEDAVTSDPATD

PFTase = settings: literature comparison value; ref [46]; cited from earlier work

Molecule	Qu1 (single-photon uncaging efficiency) (Photolysis; 25 mM NH4HCO3)	photolysis product (Photolysis; RP-HPLC)	prenylated product formed (yPFTase [1])	substrate behaviour (yPFTase [2]; prior to uncaging)	further results
CC(C)=CCC/C(C)=C/CC/C(C)=C/COP(=O)(O)OP(=O)(O)OCc1ccccc1[N+](=O)[O-] [Compound 5, β-(2-nitrobenzyl)farnesyl diphosphate]	0.70	release of farnesyl diphosphate; also recorded: efficiently release FPP upon irradiation	same prenylated product	better substrate than compound 9; also recorded: poor substrates for PFTase	interference of photolysis byproducts with catalysis (yPFTase [2]; after irradiation): do not interfere with catalysis in any way
COc1cc(C(C)OP(=O)(O)OP(=O)(O)OP(=O)(O)OC[C@H]2O[C@@H](n3cnc4c(N)ncnc43)[C@H](O)[C@@H]2O)c([N+](=O)[O-])cc1OC (stereo partly shown) [DMNPE-ATP]					Qu1 (quantum efficiency) [3]: 0.07 mol·ein^-1; Uncaging Rate [3]: 18.0 s⁻¹
CC(C)=CCC/C(C)=C/CC/C(C)=C/CO[P@@](=O)(O)OP(=O)(O)O (stereo in doubt) [FPP, farnesyl diphosphate, reference compound]			same prenylated product		rms deviation over all FPP atoms (rPFTase): 0.546 Å
COc1cc(C(C)OP(=O)(O)OP(=O)(O)OC/C=C(\C)CC/C=C(\C)CCC=C(C)C)c([N+](=O)[O-])cc1OC (stereo not drawn) [Compound 9, β-1-(4,5-dimethoxy-nitrophenyl)ethyl farnesyl diphosphate]	0.08	release of farnesyl diphosphate; also recorded: efficiently release FPP upon irradiation	same prenylated product	poorer substrate prior to uncaging; also recorded: poor substrates for PFTase	uncaging rate constant k (Photolysis; 25 mM NH4HCO3, RP-HPLC, first-order kinetics): 0.12 min⁻¹; rate of enzymatic prenylation relative to FPP (yPFTase [2]; prior to uncaging): 7.6%
CVIM					IC50 (PFTase): 165 nM
